Measurements taken from patent US20240217983A1, “GPR119 AGONISTS” (Kallyope, Inc., priority 2021, published 2024).
Structures can show the parent of a compound that is named as a salt.

Biological target: T1, human GPR119 (hGPR119) (Homo sapiens, UniProt Q8TDV5)
T1 construct: expressed in transfected cells
T1 sequence (Q8TDV5 1-335): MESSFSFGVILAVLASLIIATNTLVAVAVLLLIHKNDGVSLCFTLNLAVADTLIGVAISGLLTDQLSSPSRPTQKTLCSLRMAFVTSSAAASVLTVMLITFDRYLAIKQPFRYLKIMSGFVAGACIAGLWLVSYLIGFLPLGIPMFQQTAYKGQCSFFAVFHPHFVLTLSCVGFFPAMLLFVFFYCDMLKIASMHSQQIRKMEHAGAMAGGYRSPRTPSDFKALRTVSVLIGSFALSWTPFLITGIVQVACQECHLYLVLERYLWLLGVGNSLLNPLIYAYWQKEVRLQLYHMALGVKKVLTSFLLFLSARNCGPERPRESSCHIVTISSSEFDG
Experiment: cAMP accumulation assay (Cisbio cAMP Gs dynamic HTRF kit) in CHO-K1 cells stably expressing human GPR119
Format: cell-based
Conditions: 4-parameter fit; for Emax: 1 h, % activity normalized to Max and Min controls; for EC50: 60 minutes at 37° C.
Outline: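 CHO-K1 cells stably expressing hGPR119, used as assay-ready frozen stocks at ~10,000 cells/well, exposed to compound dose-response in stimulation buffer with Tween 80 for 60 min at 37° C. cAMP read by HTRF (665/620 nm ratio), normalised to Max/Min controls; EC50 and Max activity from 4-parameter fit.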

SMILES: O=C(Cc1ccc(OCCCC2CCN(c3ncc(Cl)cn3)CC2)cc1F)N1CCN(C[C@H](O)[C@H](O)[C@H](O)CO)CC1 [Example 71, 2-(4-(3-(1-(5-chloropyrimidin-2-yl)piperidin-4-yl)propoxy)-2-fluorophenyl)-1-(4-((2S,3S,4R)-2,3,4,5-tetrahydroxypentyl)piperazin-1-yl)ethan-1-one]
- Emax: 100 to 130%
- EC50: ≤ 100 nM

SMILES: CCCc1cnc(N2CCC(CCCOc3cc(F)c(CC(=O)N4CCN(C[C@H](O)[C@@H](O)[C@H](O)[C@H](O)CO)CC4)c(F)c3)CC2)nc1 [Example 95, 2-(2,6-difluoro-4-(3-(1-(5-propylpyrimidin-2-yl)piperidin-4-yl)propoxy)phenyl)-1-(4-((2S,3R,4R,5R)-2,3,4,5,6-pentahydroxyhexyl)piperazin-1-yl)ethan-1-one]
- Emax: 100 to 130%
- EC50: ≤ 100 nM

SMILES: O=C(CCCCS(=O)(=O)O)N1C[C@H]2CN(C(=O)Cc3ccc(OCCCC4CCN(c5ncc(Cl)cn5)CC4)cc3F)[C@H]2C1 [Example 8, 5-((1S,5R)-6-(2-(4-(3-(1-(5-chloropyrimidin-2-yl)piperidin-4-yl)propoxy)-2-fluorophenyl)acetyl)-3,6-diazabicyclo[3.2.0]heptan-3-yl)-5-oxopentane-1-sulfonic acid]
- Emax: 100 to 130%
- EC50: ≤ 100 nM

SMILES: O=C(Cc1ccc(OCCCC2CCN(c3ncc(Cl)cn3)CC2)cc1F)N1CCC12CN(C[C@H](O)[C@H](O)[C@H](O)CO)C2 [Example 40, 2-(4-(3-(1-(5-chloropyrimidin-2-yl)piperidin-4-yl)propoxy)-2-fluorophenyl)-1-(6-((2S,3S,4R)-2,3,4,5-tetrahydroxypentyl)-1,6-diazaspiro[3.3]heptan-1-yl)ethan-1-one]
- Emax: 100 to 130%
- EC50: 100 to 1000 nM

SMILES: COCc1cnc(N2CCC(CCOCc3ccc(CC(=O)N4CCN(C[C@H](O)[C@@H](O)[C@H](O)[C@H](O)CO)CC4)c(F)c3)CC2)nc1 [Example 103, 2-(2-fluoro-4-((2-(1-(5-(methoxymethyl)pyrimidin-2-yl)piperidin-4-yl)ethoxy)methyl)phenyl)-1-(4-((2S,3R,4R,5R)-2,3,4,5,6-pentahydroxyhexyl)piperazin-1-yl)ethan-1-one]
- Emax: 50 to 100%
- EC50: > 10000 nM

SMILES: O=C(Cc1ccc(OCCCC2CCN(c3ncc(Cl)cn3)CC2)cc1F)N1CCC2(CCN(C[C@H](O)[C@H](O)[C@H](O)CO)C2)C1 (stereo partly drawn) [Example 42, 2-(4-(3-(1-(5-chloropyrimidin-2-yl)piperidin-4-yl)propoxy)-2-fluorophenyl)-1-(7-((2S,3S,4R)-2,3,4,5-tetrahydroxypentyl)-2,7-diazaspiro[4.4]nonan-2-yl)ethan-1-one]
- Emax: 100 to 130%
- EC50: ≤ 100 nM

SMILES: O=C(Cc1ccc(OCCCC2CCN(c3ncc(Cl)cn3)CC2)cc1F)N1C[C@H]2CN(C[C@H](O)[C@H](O)[C@H](O)CO)[C@H]2C1 [Example 36, 2-(4-(3-(1-(5-chloropyrimidin-2-yl)piperidin-4-yl)propoxy)-2-fluorophenyl)-1-((1R,5R)-6-((2S,3S,4R)-2,3,4,5-tetrahydroxypentyl)-3,6-diazabicyclo[3.2.0]heptan-3-yl)ethan-1-one]
- Emax: 100 to 130%
- EC50: 100 to 1000 nM

SMILES: O=C(Cc1ccc(OCCCC2CCN(c3ncc(Cl)cn3)CC2)cc1F)N1CCC2(CCN2C[C@H](O)[C@@H](O)[C@H](O)[C@H](O)CO)C1 (stereo partly drawn) [Example 31, 2-(4-(3-(1-(5-chloropyrimidin-2-yl)piperidin-4-yl)propoxy)-2-fluorophenyl)-1-(1-((2S,3R,4R,5R)-2,3,4,5,6-pentahydroxyhexyl)-1,6-diazaspiro[3.4]octan-6-yl)ethan-1-one]
- Emax: 100 to 130%
- EC50: ≤ 100 nM

SMILES: CCOc1cnc(N2CCC(CCCOc3cc(F)c(CC(=O)N4CCN(C[C@H](O)[C@@H](O)[C@H](O)[C@H](O)CO)CC4)c(F)c3)CC2)nc1 [Example 97, 2-(4-(3-(1-(5-ethoxypyrimidin-2-yl)piperidin-4-yl)propoxy)-2,6-difluorophenyl)-1-(4-((2S,3R,4R,5R)-2,3,4,5,6-pentahydroxyhexyl)piperazin-1-yl)ethan-1-one]
- Emax: 100 to 130%
- EC50: ≤ 100 nM

SMILES: O=C(Cc1ccc(OCCCC2CCN(c3ncc(Cl)cn3)CC2)cc1F)N1CC2(CN(C[C@H](O)[C@H](O)[C@H](O)CO)C2)C1 [Example 25, 2-(4-(3-(1-(5-chloropyrimidin-2-yl)piperidin-4-yl)propoxy)-2-fluorophenyl)-1-(6-((2S,3S,4R)-2,3,4,5-tetrahydroxypentyl)-2,6-diazaspiro[3.3]heptan-2-yl)ethan-1-one formate]
- Emax: 50 to 100%
- EC50: > 10000 nM

SMILES: O=C(Cc1ccc(OCCCC2CCN(c3ncc(Cl)cn3)CC2)cc1F)N1CC2CCC1CN2C[C@H](O)[C@@H](O)[C@H](O)[C@H](O)CO (stereo partly drawn) [Example 53, 2-(4-(3-(1-(5-chloropyrimidin-2-yl)piperidin-4-yl)propoxy)-2-fluorophenyl)-1-(5-((2S,3R,4R,5R)-2,3,4,5,6-pentahydroxyhexyl)-2,5-diazabicyclo[2.2.2]octan-2-yl)ethan-1-one]
- Emax: 100 to 130%
- EC50: ≤ 100 nM

SMILES: O=C(Cc1ccc(OCCCC2CCN(c3ncc(Cl)cn3)CC2)cc1F)N1C[C@@H]2C[C@H]1CN2C[C@H](O)[C@H](O)[C@H](O)CO [Example 54, 2-(4-(3-(1-(5-chloropyrimidin-2-yl)piperidin-4-yl)propoxy)-2-fluorophenyl)-1-((1S,4S)-5-((2S,3S,4R)-2,3,4,5-tetrahydroxypentyl)-2,5-diazabicyclo[2.2.1]heptan-2-yl)ethan-1-one]
- Emax: 100 to 130%
- EC50: ≤ 100 nM

SMILES: O=C(CCCCS(=O)(=O)O)N1CC2CCC1CN2C(=O)Cc1ccc(OCCCC2CCN(c3ncc(Cl)cn3)CC2)cc1F (stereo not drawn) [Example 14, 5-(5-(2-(4-(3-(1-(5-chloropyrimidin-2-yl)piperidin-4-yl)propoxy)-2-fluorophenyl)acetyl)-2,5-diazabicyclo[2.2.2]octan-2-yl)-5-oxopentane-1-sulfonic acid]
- Emax: 100 to 130%
- EC50: ≤ 100 nM

SMILES: O=C(Cc1ccc(OCCCC2CCN(c3ncc(Cl)cn3)CC2)cc1F)N1CCC2(CCCN2C[C@H](O)[C@H](O)[C@H](O)CO)C1 (stereo partly drawn) [Example 74, 2-(4-(3-(1-(5-chloropyrimidin-2-yl)piperidin-4-yl)propoxy)-2-fluorophenyl)-1-(1-((2S,3S,4R)-2,3,4,5-tetrahydroxypentyl)-1,7-diazaspiro[4.4]nonan-7-yl)ethan-1-one]
- Emax: ≥ 130%
- EC50: ≤ 100 nM

SMILES: O=C(Cc1ccc(OCCCC2CCN(c3ncc(Cl)cn3)CC2)cc1F)N1CC2CCC1CN2C[C@H](O)[C@H](O)[C@H](O)CO (stereo partly drawn) [Example 52, 2-(4-(3-(1-(5-chloropyrimidin-2-yl)piperidin-4-yl)propoxy)-2-fluorophenyl)-1-(5-((2S,3S,4R)-2,3,4,5-tetrahydroxypentyl)-2,5-diazabicyclo[2.2.2]octan-2-yl)ethan-1-one]
- Emax: ≥ 130%
- EC50: ≤ 100 nM

SMILES: O=C(Cc1ccc(OCCCC2CCN(c3ncc(Cl)cn3)CC2)cc1F)N1CCC2(CC1)CCN2C(=O)CCCCS(=O)(=O)O [Example 21, 5-(7-(2-(4-(3-(1-(5-chloropyrimidin-2-yl)piperidin-4-yl)propoxy)-2-fluorophenyl)acetyl)-1,7-diazaspiro[3.5]nonan-1-yl)-5-oxopentane-1-sulfonic acid]
- Emax: 100 to 130%
- EC50: ≤ 100 nM

SMILES: O=C(Cc1ccc(OCCCC2CCN(c3ncc(Cl)cn3)CC2)cc1F)N1C[C@@H]2CN(C[C@H](O)[C@H](O)[C@H](O)CO)C[C@@H]21 [Example 38, 2-(4-(3-(1-(5-chloropyrimidin-2-yl)piperidin-4-yl)propoxy)-2-fluorophenyl)-1-((1S,5R)-3-((2S,3S,4R)-2,3,4,5-tetrahydroxypentyl)-3,6-diazabicyclo[3.2.0]heptan-6-yl)ethan-1-one]
- Emax: 100 to 130%
- EC50: ≤ 100 nM

SMILES: O=C(Cc1ccc(OCCCC2CCN(c3ncc(Cl)cn3)CC2)cc1F)N1CCC2(CN(C[C@H](O)[C@@H](O)[C@H](O)[C@H](O)CO)C2)C1 [Example 29, 2-(4-(3-(1-(5-chloropyrimidin-2-yl)piperidin-4-yl)propoxy)-2-fluorophenyl)-1-(2-((2S,3R,4R,5R)-2,3,4,5,6-pentahydroxyhexyl)-2,6-diazaspiro[3.4]octan-6-yl)ethan-1-one]
- Emax: 100 to 130%
- EC50: ≤ 100 nM

SMILES: O=C(CCCCS(=O)(=O)O)N1C[C@H]2C[C@@H]1CN2C(=O)Cc1ccc(OCCCC2CCN(c3ncc(Cl)cn3)CC2)cc1F [Example 11, 5-((1R,4R)-5-(2-(4-(3-(1-(5-chloropyrimidin-2-yl)piperidin-4-yl)propoxy)-2-fluorophenyl)acetyl)-2,5-diazabicyclo[2.2.1]heptan-2-yl)-5-oxopentane-1-sulfonic acid]
- Emax: 100 to 130%
- EC50: ≤ 100 nM

SMILES: O=C(Cc1ccc(OCCCC2CCN(c3ncc(Cl)cn3)CC2)cc1F)N1CCCN(C[C@H](O)[C@@H](O)[C@H](O)[C@H](O)CO)CC1 [Example 51, 2-(4-(3-(1-(5-chloropyrimidin-2-yl)piperidin-4-yl)propoxy)-2-fluorophenyl)-1-(4-((2S,3R,4R,5R)-2,3,4,5,6-pentahydroxyhexyl)-1,4-diazepan-1-yl)ethan-1-one]
- Emax: 100 to 130%
- EC50: ≤ 100 nM

SMILES: O=C(Cc1ccc(OCCCC2CCN(c3ncc(Cl)cn3)CC2)cc1F)N1CC2(C1)OCC2NC[C@H](O)[C@H](O)[C@H](O)CO (stereo partly drawn) [Example 82, 2-(4-(3-(1-(5-chloropyrimidin-2-yl)piperidin-4-yl)propoxy)-2-fluorophenyl)-1-(3-(((2S,3S,4R)-2,3,4,5-tetrahydroxypentyl)amino)-1-oxa-6-azaspiro[3.3]heptan-6-yl)ethan-1-one]
- Emax: 100 to 130%
- EC50: ≤ 100 nM
